Assay results published in patent US7851474B2, “Dipiperazinyl ketones and related analogues” (Neurogen Corporation, priority 2005, dated 2010).

Target: T1, chimeric human H3 receptor (Homo sapiens, UniProt Q9Y5N1, E19D)
T1 construct: made in house; host or cells: Sf9 insect cells (baculovirus infection); P2 membrane preparation
Assay: Chimeric human H3 receptor GTP binding assay (agonist-stimulated GTP-gamma35S binding, Example 7)
Assay type: biochemical
Conditions: assay of Example 7; "*" in Ki of Table II; read-out: Ki
Outline: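 IC50 values come from non-linear regression of dose-response curves of filter-bound GTP-gamma^35S, counted by scintillation. Membranes were from infected Sf9 cells carrying receptor plus G-protein subunits, 35 μg/tube, with 10 μM GDP present.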

T1 sequence (Q9Y5N1 with tags, fused parts or gaps E19D): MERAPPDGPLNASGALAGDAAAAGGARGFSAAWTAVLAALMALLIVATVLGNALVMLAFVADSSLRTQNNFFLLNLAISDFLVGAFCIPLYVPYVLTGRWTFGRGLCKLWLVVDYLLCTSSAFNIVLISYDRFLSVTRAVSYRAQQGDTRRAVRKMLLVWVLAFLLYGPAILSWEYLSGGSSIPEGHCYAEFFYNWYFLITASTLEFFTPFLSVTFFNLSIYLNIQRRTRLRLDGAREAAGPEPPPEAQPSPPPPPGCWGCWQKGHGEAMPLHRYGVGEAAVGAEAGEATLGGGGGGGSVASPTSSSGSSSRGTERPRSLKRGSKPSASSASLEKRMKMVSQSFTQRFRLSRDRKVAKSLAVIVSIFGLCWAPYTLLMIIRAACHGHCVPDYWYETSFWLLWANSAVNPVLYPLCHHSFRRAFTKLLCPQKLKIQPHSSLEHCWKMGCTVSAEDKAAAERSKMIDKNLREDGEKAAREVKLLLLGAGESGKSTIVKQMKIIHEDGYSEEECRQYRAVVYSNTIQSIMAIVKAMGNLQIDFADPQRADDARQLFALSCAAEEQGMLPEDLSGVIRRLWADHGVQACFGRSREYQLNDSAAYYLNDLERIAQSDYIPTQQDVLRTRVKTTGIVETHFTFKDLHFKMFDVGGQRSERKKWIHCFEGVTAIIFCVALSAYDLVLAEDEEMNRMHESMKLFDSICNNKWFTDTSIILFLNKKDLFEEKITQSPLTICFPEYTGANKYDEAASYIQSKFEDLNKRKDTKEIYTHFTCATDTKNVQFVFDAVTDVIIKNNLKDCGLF

Ki, < 1000 nM:
O=C1CCCc2cc(N3CCN(CC(=O)N4CCN(C5CCC5)CC4)CC3)ccc21 [Compound 1165, 6-{4-[2-(4-cyclobutylpiperazin-1-yl)-2-oxoethyl]piperazin-1-yl}-3,4-dihydronaphthalen-1(2H)-one]
O=C(NC1CCCC1)c1ccc(N2CCN(CC(=O)N3CCN(C4CCC4)CC3)CC2)nn1 [Compound 1166, 6-{4-[2-(4-cyclobutylpiperazin-1-yl)-2-oxoethyl]piperazin-1-yl}-N-cyclopentylpyridazine-3-carboxamide]
CNC(=O)c1ccc(N2CCN(CC(=O)N3CCN(C4CCC4)CC3)CC2)nc1 [Compound 1167, 6-{4-[2-(4-cyclobutylpiperazin-1-yl)-2-oxoethyl]piperazin-1-yl}-N-methylnicotinamide]
CCN(C(=O)c1ccc(N2CCN(CC(=O)N3CCN(C4CCC4)CC3)CC2)nc1)C(C)C [Compound 1168, 6-{4-[2-(4-cyclobutylpiperazin-1-yl)-2-oxoethyl]piperazin-1-yl}-N-ethyl-N-isopropylnicotinamide]
CC(C)N(C)C(=O)c1ccc(N2CCN(CC(=O)N3CCN(C4CCC4)CC3)CC2)nc1 [Compound 1169, 6-{4-[2-(4-cyclobutylpiperazin-1-yl)-2-oxoethyl]piperazin-1-yl}-N-isopropyl-N-methylnicotinamide]
CN(C(=O)c1ccc(N2CCN(CC(=O)N3CCN(C4CCC4)CC3)CC2)nc1)C1CCCCC1 [Compound 1170, 6-{4-[2-(4-cyclobutylpiperazin-1-yl)-2-oxoethyl]piperazin-1-yl}-N-cyclohexyl-N-methylnicotinamide]
CCN(C(=O)c1ccc(N2CCN(CC(=O)N3CCN(C4CCC4)CC3)CC2)nc1)C1CCCCC1 [Compound 1171, 6-{4-[2-(4-cyclobutylpiperazin-1-yl)-2-oxoethyl]piperazin-1-yl}-N-cyclohexyl-N-ethylnicotinamide]
COCCN(C(=O)c1ccc(N2CCN(CC(=O)N3CCN(C4CCC4)CC3)CC2)nc1)C(C)C [Compound 1172, 6-{4-[2-(4-cyclobutylpiperazin-1-yl)-2-oxoethyl]piperazin-1-yl}-N-isopropyl-N-(2-methoxyethyl)nicotinamide]
CCC(C)CNC(=O)c1ccc(N2CCN(CC(=O)N3CCN(C4CCC4)CC3)CC2)nc1 (centres unmarked) [Compound 1173, 6-{4-[2-(4-cyclobutylpiperazin-1-yl)-2-oxoethyl]piperazin-1-yl}-N-(2-methylbutyl)nicotinamide]
CCNC(=O)c1ccc(N2CCN(CC(=O)N3CCN(C4CCC4)CC3)CC2)nc1 [Compound 1174, 6-{4-[2-(4-cyclobutylpiperazin-1-yl)-2-oxoethyl]piperazin-1-yl}-N-ethylnicotinamide]
CCCNC(=O)c1ccc(N2CCN(CC(=O)N3CCN(C4CCC4)CC3)CC2)nc1 [Compound 1175, 6-{4-[2-(4-cyclobutylpiperazin-1-yl)-2-oxoethyl]piperazin-1-yl}-N-propylnicotinamide]
O=C(NCC1CC1)c1ccc(N2CCN(CC(=O)N3CCN(C4CCC4)CC3)CC2)nc1 [Compound 1176, 6-{4-[2-(4-cyclobutylpiperazin-1-yl)-2-oxoethyl]piperazin-1-yl}-N-(cyclopropylmethyl) nicotinamide]
CC(C)CNC(=O)c1ccc(N2CCN(CC(=O)N3CCN(C4CCC4)CC3)CC2)nc1 [Compound 1177, 6-{4-[2-(4-cyclobutylpiperazin-1-yl)-2-oxoethyl]piperazin-1-yl}-N-isobutylnicotinamide]
CCCCCNC(=O)c1ccc(N2CCN(CC(=O)N3CCN(C4CCC4)CC3)CC2)nc1 [Compound 1178, 6-{4-[2-(4-cyclobutylpiperazin-1-yl)-2-oxoethyl]piperazin-1-yl}-N-pentylnicotinamide]
CC(C)CCNC(=O)c1ccc(N2CCN(CC(=O)N3CCN(C4CCC4)CC3)CC2)nc1 [Compound 1179, 6-{4-[2-(4-cyclobutylpiperazin-1-yl)-2-oxoethyl]piperazin-1-yl}-N-(3-methylbutyl)nicotinamide]
O=C(NCC(F)(F)F)c1ccc(N2CCN(CC(=O)N3CCN(C4CCC4)CC3)CC2)nc1 [Compound 1180, 6-{4-[2-(4-cyclobutylpiperazin-1-yl)-2-oxoethyl]piperazin-1-yl}-N-(2,2,2-trifluoroethyl) nicotinamide]
O=C(NC1CCCCC1)c1ccc(N2CCN(CC(=O)N3CCN(C4CCC4)CC3)CC2)nc1 [Compound 1181, 6-{4-[2-(4-cyclobutylpiperazin-1-yl)-2-oxoethyl]piperazin-1-yl}-N-cyclohexylnicotinamide]
CC(C)NC(=O)c1ccc(N2CCN(CC(=O)N3CCN(C4CCC4)CC3)CC2)nc1 [Compound 1182, 6-{4-[2-(4-cyclobutylpiperazin-1-yl)-2-oxoethyl]piperazin-1-yl}-N-isopropylnicotinamide]
O=C(NC1CCCC1)c1ccc(N2CCN(CC(=O)N3CCN(C4CCC4)CC3)CC2)nc1 [Compound 1183, 6-{4-[2-(4-cyclobutylpiperazin-1-yl)-2-oxoethyl]piperazin-1-yl}-N-cyclopentylnicotinamide]
CCCC(C)NC(=O)c1ccc(N2CCN(CC(=O)N3CCN(C4CCC4)CC3)CC2)nc1 (centres unmarked) [Compound 1184, 6-{4-[2-(4-cyclobutylpiperazin-1-yl)-2-oxoethyl]piperazin-1-yl}-N-(1-methylbutyl)nicotinamide]
O=C(NC1CCCCCC1)c1ccc(N2CCN(CC(=O)N3CCN(C4CCC4)CC3)CC2)nc1 [Compound 1185, 6-{4-[2-(4-cyclobutylpiperazin-1-yl)-2-oxoethyl]piperazin-1-yl}-N-cycloheptylnicotinamide]
O=C(NCC1CCCCC1)c1ccc(N2CCN(CC(=O)N3CCN(C4CCC4)CC3)CC2)nc1 [Compound 1186, 6-{4-[2-(4-cyclobutylpiperazin-1-yl)-2-oxoethyl]piperazin-1-yl}-N-(cyclohexylmethyl) nicotinamide]
CC(C)(C)CNC(=O)c1ccc(N2CCN(CC(=O)N3CCN(C4CCC4)CC3)CC2)nc1 [Compound 1187, 6-{4-[2-(4-cyclobutylpiperazin-1-yl)-2-oxoethyl]piperazin-1-yl}-N-(2,2-dimethylpropyl) nicotinamide]
CCC(CC)CNC(=O)c1ccc(N2CCN(CC(=O)N3CCN(C4CCC4)CC3)CC2)nc1 [Compound 1188, 6-{4-[2-(4-cyclobutylpiperazin-1-yl)-2-oxoethyl]piperazin-1-yl}-N-(2-ethylbutyl)nicotinamide]
N#Cc1ccc(N2CCN(CC(=O)N3CCN(C4CCC4)CC3)CC2)nn1 [Compound 1189, 6-{4-[2-(4-cyclobutylpiperazin-1-yl)-2-oxoethyl]piperazin-1-yl}pyridazine-3-carbonitrile]
O=C(CN1CCC2(CC1)C(=O)NCN2c1ccccc1)N1CCN(C2CCC2)CC1 [Compound 1190]
CC(C)N1CN(c2ccccc2)C2(CCN(CC(=O)N3CCN(C4CCC4)CC3)CC2)C1=O [Compound 1191]
CC(C)OC1=NCN(c2ccccc2)C12CCN(CC(=O)N1CCN(C3CCC3)CC1)CC2 [Compound 1192, 8-[2-(4-cyclobutylpiperazin-1-yl)-2-oxoethyl]-4-isopropoxy-1-phenyl-1,3,8-triazaspiro[4.5]dec-3-ene]
O=C(OCc1ccccc1)c1cccc(N2CCN(CC(=O)N3CCN(C4CCC4)CC3)CC2)c1 [Compound 1193, benzyl 3-{4-[2-(4-cyclobutylpiperazin-1-yl)-2-oxoethyl]piperazin-1-yl}benzoate]
O=C(c1ccc(N2CCN(CC(=O)N3CCN(C4CCC4)CC3)CC2)cc1)C1CCC1 [Compound 1194, cyclobutyl(4-{4-[2-(4-cyclobutylpiperazin-1-yl)-2-oxoethyl]piperazin-1-yl}phenyl)methanone]
CCOC(=O)c1cccc(-c2cnc(N3CCN(CC(=O)N4CCN(C5CCC5)CC4)CC3)cn2)c1 [Compound 1195, ethyl 3-(5-{4-[2-(4-cyclobutylpiperazin-1-yl)-2-oxoethyl]piperazin-1-yl}pyrazin-2-yl)benzoate]
CCOC(=O)c1cccc(-c2ccc(N3CCN(CC(=O)N4CCN(C5CCC5)CC4)CC3)nn2)c1 [Compound 1196, ethyl 3-(6-{4-(2-(4-cyclobutylpiperazin-1-yl)-2-oxoethyl]piperazin-1-yl}pyridazin-3-yl)benzoate]
CCOC(=O)c1ccc(-c2cnc(N3CCN(CC(=O)N4CCN(C5CCC5)CC4)CC3)cn2)cc1 [Compound 1197, ethyl 4-(5-{4-[2-(4-cyclobutylpiperazin-1-yl)-2-oxoethyl]piperazin-1-yl}pyrazin-2-yl)benzoate]
CCOC(=O)c1ccc(-c2ccc(N3CCN(CC(=O)N4CCN(C5CCC5)CC4)CC3)nn2)cc1 [Compound 1198, ethyl 4-(6-{4-[2-(4-cyclobutylpiperazin-1-yl)-2-oxoethyl]piperazin-1-yl}pyridazin-3-yl)benzoate]
CCOC(=O)c1ccc(-c2ccc(N3CCN(CC(=O)N4CCN(C5CCC5)CC4)CC3)cc2)cc1 [Compound 1199, ethyl 4′-{4-[2-(4-cyclobutylpiperazin-1-yl)-2-oxoethyl]piperazin-1-yl}biphenyl-4-carboxylate]
